Experimental data from patent US9133168B2, “Pyrimidine derivatives, preparation thereof, and pharmaceutical use thereof as akt(pkb) phosphorylation inhibitors” (SANOFI, priority 2010, dated 2015).

These molecules were tested on AKT protein phosphorylated on serine 473 (P-AKT-S473) in PC3 human prostate carcinoma cells (assay: pAKT expression in PC3 human prostate carcinoma cells, MSD Multi-spot Biomarker detection (Test A)). Settings: Homo sapiens, PC-3, PC3 cells, 1 to 2 h incubation, P-AKT-S473, absolute IC50, mean of two independent experiments.
Type: cell-based
Protocol: The inhibitory activity of the molecules on AKT phosphorylation is measured using the MSD Multi-spot Biomarker detection technique from Meso Scale Discovery also described below. […] The primary antibody specific for […]) is coated on to an electrode in each well of the 96-well plates of the MSD kit: after the addition of a protein lysate to each well, the signal is visualized by adding a secondary detection antibody labeled with an electrochemiluminescent compound. The procedure followed is the one described in the kit. […] On day 2, the cells are incubated in the presence or absence of the test products for 1 to 2 h at 37° C. in the presence of 5% CO2. The molecules, diluted in dimethyl sulfoxide (DMSO Sigma #D2650), are added from a 20-times concentrated stock solution, the final percentage of DMSO being 0.1%. The molecules are tested either at a single concentration of less than or equal to 10 μM, or at increasing concentrations in a range that can extend from less than 1 nM to 10 μM. After this incubation, the cells are lysed for the preparation of the proteins. […] At this stage, the plates containing the lysates can be frozen at -20° C. or at -80° C. The wells of the 96 well plates of the MSD kit are saturated for 1 h at ambient temperature with the blocking solution of the MSD kit. Four washes are carried out with 150 μl of Tris Wash Buffer of the MSD kit. The lysates previously prepared are transferred into the 96-well multi-spot plates of the MSD kit and incubated for 1 h at ambient temperature, with shaking. Four washes are carried out with 150 μl of Tris Wash Buffer of the MSD kit. 25 μl of the MSD sulfo-tag detection antibody solution are added to the wells and incubated for 1 h at ambient temperature, with shaking. Four washes are carried out with 150 μl of Tris Wash Buffer of the MSD kit. 150 μl of Read Buffer of the MSD kit are added to the wells and the plates are read immediately on the S12400 instrument from Meso Scale Discovery. The instrument measures a signal for each well. Wells without cells and containing the lysis buffer serve to determine the background noise that will be subtracted from all the measurements (min). The wells containing cells in the absence of product and in the presence of 0.1% DMSO are considered to be the 100% signal (max). The percentage inhibition is calculated for each concentration of product tested, according to the following formula: (1-((test-min)/(max-min)))×100. […] Two independent experiments make it possible to calculate the mean of the IC50 values.

Compared with `C[C@H]1Cc2ccccc2N1C(=O)Cc1nc(N2CCOC(CO)C2)cc(=O)[nH]1` (single isomer, unassigned; (+)) [Example 31b], `CC1CN(C(=O)Cc2nc(N3CCOCC3)cc(=O)[nH]2)c2cccc(O)c21` (single isomer, unassigned; (-)) [Example 12c, (−)-2-{2-[4-hydroxy-3-methyl-2,3-dihydro-1H-indol-1-yl]-2-oxoethyl}-6-(morpholin-4-yl)pyrimidin-4(3H)-one] is 2.7-fold lower in IC50: 156 nM for the first, 57 nM for the second.

Work on `CC1Cc2c(F)cccc2N1C(=O)Cc1nc(N2CCOCC2)cc(=O)n1C` (single isomer, unassigned; (-)) [Example 29c, (−)-2-{2-[4-fluoro-2-methyl-2,3-dihydro-1H-indol-1-yl]-2-oxoethyl}-3-methyl-6-(morpholin-4-yl)pyrimidin-4(3H)-one] yielded an IC50 of 53 nM.

Same assay, conditions: PC3 cells, 1 to 2 h incubation, P-AKT-S473, absolute IC50, mean of two independent experiments

First: CC1Cc2c(F)cccc2N1C(=O)Cc1nc(N2CCOCC2)cc(=O)n1C (single isomer, unassigned; (+)) [Example 30c, (+)-2-{2-[4-fluoro-2-methyl-2,3-dihydro-1H-indol-1-yl]-2-oxoethyl}-3-methyl-6-(morpholin-4-yl)pyrimidin-4(3H)-one]
Second: CC1Cc2c(Br)cccc2N1C(=O)Cc1nc(N2CCOCC2)cc(=O)n1C (single isomer, unassigned; (+)) [Example 31c, (+)-2-{2-[4-bromo-2-methyl-2,3-dihydro-1H-indol-1-yl]-2-oxoethyl}-3-methyl-6-(morpholin-4-yl)pyrimidin-4(3H)-one]
The IC50 of the first is 2-fold higher: 73 nM for the first, 36 nM for the second.

Going from `CC1Cc2c(OC(F)F)cccc2N1C(=O)Cc1nc(N2CCOCC2)cc(=O)n1C` (single isomer, unassigned; (+)) [Example 31d, (+)-2-{2-[4-(difluoromethoxy)-2-methyl-2,3-dihydro-1H-indol-1-yl]-2-oxoethyl}-3-methyl-6-(morpholin-4-yl)pyrimidin-4(3H)-one] to `CC1Cc2c(Cl)cccc2N1C(=O)Cc1nc(N2CCOCC2)cc(=O)n1C` (single isomer, unassigned; (+)) [Example 33c, (+)-2-{2-[4-chloro-2-methyl-2,3-dihydro-1H-indol-1-yl]-2-oxoethyl}-3-methyl-6-(morpholin-4-yl)pyrimidin-4(3H)-one], the IC50 falls from 167 nM to 55 nM (3-fold). The second is the more potent here.

Compared with `O=C(Cc1nc(N2CCOCC2)cc(=O)[nH]1)N1c2ccccc2CC1C1CC1` (single isomer, unassigned; (+)) [Example 34d, (+)-2-[2-(2-cyclopropyl-2,3-dihydroindol-1-yl)-2-oxoethyl]-6-morpholin-4-yl-3H-pyrimidin-4-one], `CC1Cc2ccccc2N1C(=O)Cc1nc(N2CCOCC2)cc(=O)[nH]1` (single isomer, unassigned; (-)) [Example 22b, (−)-2-[2-(2-methyl-2,3-dihydroindol-1-yl)-2-oxoethyl]-6-morpholin(D8)-4-yl-3H-pyrimidin-4-one] is 5.3-fold lower in IC50: 48 nM for the first, 9 nM for the second.

`CC1Cc2c(cccc2C(F)(F)F)N1C(=O)Cc1nc(N2CCOCC2)cc(=O)[nH]1` (single isomer, unassigned; (+)) [Example 36d, (+)-2-{2-[2-methyl-4-(trifluoromethyl)-2,3-dihydro-1H-indol-1-yl]-2-oxoethyl}-6-(morpholin-4-yl)pyrimidin-4(3H)-one] and `CC1Cc2c(F)cccc2N1C(=O)Cc1nc(N2CCOCC2)cc(=O)[nH]1` (single isomer, unassigned; (-)) [Example 27c, (−)-2-{2-[4-fluoro-2-methyl-2,3-dihydro-1H-indol-1-yl]-2-oxoethyl}-6-(morpholin-4-yl)pyrimidin-4(3H)-one] are within 1.5-fold of each other in IC50: 5 nM for the first, 4 nM for the second.

Compared with `CC1Cc2c(ccc(F)c2Cl)N1C(=O)Cc1nc(N2CCOCC2)cc(=O)[nH]1` (single isomer, unassigned; (+)) [Example 37c, (+)-2-{2-[4-chloro-5-fluoro-2-methyl-2,3-dihydro-1H-indol-1-yl]-2-oxoethyl}-6-(morpholin-4-yl)pyrimidin-4(3H)-one], `CC1Cc2c(ccc(F)c2F)N1C(=O)Cc1nc(N2CCOCC2)cc(=O)[nH]1` (single isomer, unassigned; (-)) [Example 18c, (−)-2-{2-[4,5-difluoro-2-methyl-2,3-dihydro-1H-indol-1-yl]-2-oxoethyl}-6-(morpholin-4-yl)pyrimidin-4(3H)-one] is 7-fold lower in IC50: 7 nM for the first, 1 nM for the second.

Going from `CCC1Cc2ccccc2N1C(=O)Cc1nc(N2CCOCC2)cc(=O)[nH]1` (single isomer, unassigned; (+)) [Example 42c, (+)-2-[2-(2-ethyl-2,3-dihydroindol-1-yl)-2-oxoethyl]-6-morpholin-4-yl-3H-pyrimidin-4-one] to `CC1Cc2c(Cl)cccc2N1C(=O)Cc1nc(N2CCOCC2)cc(=O)[nH]1` (single isomer, unassigned; (-)) [Example 3c, (−)-2-{2-[4-chloro-2-methyl-2,3-dihydro-1H-indol-1-yl]-2-oxoethyl}-6-(morpholin-4-yl)pyrimidin-4(3H)-one], the IC50 falls from 380 nM to 1 nM (380-fold). The second is the more potent here.

Compared with `CC(F)(C(=O)N1CCc2c(F)cccc21)c1nc(N2CCOCC2)cc(=O)[nH]1` (single isomer, unassigned; (+)) [Example 45c, (+)-2-[2-fluoro-1-(4-fluoro-2,3-dihydro-1H-indol-1-yl)-1-oxopropan-2-yl]-6-(morpholin-4-yl)pyrimidin-4(3H)-one], `CC1CN(c2cc(=O)[nH]c(CC(=O)N3CCc4c(F)cccc43)n2)CCO1` (single isomer, unassigned; (-)) [Example 9b, (−)-2-[2-(4-fluoro-2,3-dihydroindol-1-yl)-2-oxoethyl]-6-(2-methylmorpholin-4-yl)-3H-pyrimidin-4-one] is 1.7-fold lower in IC50: 260 nM for the first, 156 nM for the second. The second is the more potent here.

Going from `CC1Cc2c(O)cccc2N1C(=O)Cc1nc(N2CCOCC2)cc(=O)[nH]1` (single isomer, unassigned; (-)) [Example 10c, (−)-2-{2-[4-hydroxy-2-methyl-2,3-dihydro-1H-indol-1-yl]-2-oxoethyl}-6-(morpholin-4-yl)pyrimidin-4(3H)-one] to `CC1Cc2c(Br)cccc2N1C(=O)Cc1nc(N2CCOCC2)cc(=O)[nH]1` (single isomer, unassigned; (-)) [Example 26c, (−)-2-{2-[4-bromo-2-methyl-2,3-dihydro-1H-indol-1-yl]-2-oxoethyl}-6-(morpholin-4-yl)pyrimidin-4(3H)-one], the IC50 falls from 22 nM to 3 nM (7.3-fold). The second is the more potent here.

First: CC1Cc2cc(F)ccc2N1C(=O)Cc1nc(N2CCOCC2)cc(=O)[nH]1 (single isomer, unassigned; (-)) [Example 14c, (−)-2-{2-[5-fluoro-2-methyl-2,3-dihydro-1H-indol-1-yl]-2-oxoethyl}-6-(morpholin-4-yl)pyrimidin-4(3H)-one]
Second: CC1Cc2cc(F)ccc2N1C(=O)Cc1nc(N2CCOCC2)cc(=O)n1C (single isomer, unassigned; (-)) [Example 16c, (−)-2-{2-[5-fluoro-2-methyl-2,3-dihydro-1H-indol-1-yl]-2-oxoethyl}-3-methyl-6-(morpholin-4-yl)pyrimidin-4(3H)-one]
The IC50 of the first is 6.5-fold lower: 2 nM for the first, 13 nM for the second. The first is the more potent here.

Going from `CC1Cc2c(Br)cccc2N1C(=O)Cc1nc(N2CCOCC2)c(F)c(=O)[nH]1` (single isomer, unassigned; (-)) [Example 17a, (−)-2-{2-[4-bromo-2-methyl-2,3-dihydro-1H-indol-1-yl]-2-oxoethyl}-5-fluoro-6-(morpholin-4-yl)pyrimidin-4(3H)-one] to `CC1Cc2c(ccc(F)c2F)N1C(=O)Cc1nc(N2CCOCC2)cc(=O)n1C` (single isomer, unassigned; (-)) [Example 20c, (−)-2-{2-[4,5-difluoro-2-methyl-2,3-dihydro-1H-indol-1-yl]-2-oxoethyl}-3-methyl-6-(morpholin-4-yl)pyrimidin-4(3H)-one], the IC50 falls from 45 nM to 13 nM (3.5-fold). The second is the more potent here.

Going from `O=C(Cc1nc(N2CCOC(CO)C2)cc(=O)[nH]1)N1CCc2c(Cl)cccc21` (single isomer, unassigned; (-)) [Example 25b, (−)-2-[2-(4-Chloro-2,3-dihydroindol-1-yl)-2-oxoethyl]-6-(2-hydroxymethylmorpholin-4-yl)-3H-pyrimidin-4-one] to `O=C(Cc1nc(N2CCOCC2)cc(=O)[nH]1)N1c2ccccc2CC1c1ccccc1` (single isomer, unassigned; (-)) [Example 25d, (−)-6-(morpholin-4-yl)-2-{2-oxo-2-[2-phenyl-2,3-dihydro-1H-indol-1-yl]ethyl}pyrimidin-4(3H)-one], the IC50 falls from 27 nM to 5 nM (5.4-fold). The second is the more potent here.

In the case of `O=C(Cc1nc(N2CCOCC2)cc(=O)[nH]1)N1c2ccccc2CC1c1ccc(F)cc1` (single isomer, unassigned; (-)) [Example 28d, (−)-2-{2-[2-(4-fluorophenyl)-2,3-dihydro-1H-indol-1-yl]-2-oxoethyl}-6-(morpholin-4-yl)pyrimidin-4(3H)-one], the IC50 is reported as 2 nM.
